This assay addresses T1, Chk1 (Homo sapiens, UniProt O14757).
T1 construct: purchased Upstate Biotechnology
T1 sequence (O14757 1-476): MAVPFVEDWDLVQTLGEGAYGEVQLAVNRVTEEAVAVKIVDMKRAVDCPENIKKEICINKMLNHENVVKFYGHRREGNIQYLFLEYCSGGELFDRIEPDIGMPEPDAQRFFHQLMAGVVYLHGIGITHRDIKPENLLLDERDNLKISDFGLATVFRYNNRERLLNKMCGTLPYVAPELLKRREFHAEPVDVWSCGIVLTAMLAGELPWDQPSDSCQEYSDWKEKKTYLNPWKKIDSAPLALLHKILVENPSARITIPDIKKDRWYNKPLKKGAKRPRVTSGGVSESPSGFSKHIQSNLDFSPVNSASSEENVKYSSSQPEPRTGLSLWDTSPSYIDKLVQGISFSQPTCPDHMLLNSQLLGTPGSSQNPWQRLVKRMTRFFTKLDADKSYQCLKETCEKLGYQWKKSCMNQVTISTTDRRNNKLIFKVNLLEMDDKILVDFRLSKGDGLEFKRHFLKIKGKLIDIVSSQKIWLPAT
Put plainly: Chk1 kinase assay: incorporation of γ-33P ATP into immobilized myelin basic protein. It is filed as biochemical. The note with it: Table 11, Chk1 only; class symbols A-D; read-out: Chk1 IC50. The procedure, abridged: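 Radiometric filter-free format: Chk1 10 nM, 10 μM ATP; Chk2 20 nM, 30 μM ATP; γ-33P ATP tracer; immobilized MBP substrate; Hepes pH 7.6, 10 mM MgCl2, 1 mM DTT; 1 h RT; 1% DMSO. Scintillation counting of washed plates. IC50/Ki from curve fit.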

Bounds are passed on as bounds.

As usually defined, the IC50 is the midpoint of a concentration-inhibition curve. For the molecule `Nc1ncc(-c2cccc(CNC(=O)c3ccc(I)cc3)c2)nc1-c1nc([C@H]2CCCNC2)n[nH]1` [Example 942, N-{[3-(5-amino-6-{3-[(3S)-piperidin-3-yl]-1H-1,2,4-triazol-5-yl}pyrazin-2-yl)phenyl]methyl}-4-iodobenzamide], the IC50 is less than 0.05 µM. As for `Nc1ncc(-c2cccc(CNC(=O)c3cc(F)cc(F)c3)c2)nc1-c1nc([C@H]2CCCNC2)n[nH]1` [Example 943, N-{[3-(5-amino-6-{3-[(3S)-piperidin-3-yl]-1H-1,2,4-triazol-5-yl}pyrazin-2-yl)phenyl]methyl}-3,5-difluorobenzamide], the IC50 was less than 0.05 µM. Consider `Nc1ncc(-c2cccc(CNC(=O)c3ccc(Br)cc3F)c2)nc1-c1nc([C@H]2CCCNC2)n[nH]1` [Example 944, N-{[3-(5-amino-6-{3-[(3S)-piperidin-3-yl]-1H-1,2,4-triazol-5-yl}pyrazin-2-yl)phenyl]methyl}-4-bromo-2-fluorobenzamide], for which the IC50 is less than 0.05 µM. Take `Nc1ncc(-c2cccc(CNC(=O)c3ccc(Br)cc3Cl)c2)nc1-c1nc([C@H]2CCCNC2)n[nH]1` [Example 945, N-{[3-(5-amino-6-{3-[(3S)-piperidin-3-yl]-1H-1,2,4-triazol-5-yl}pyrazin-2-yl)phenyl]methyl}-4-bromo-2-chlorobenzamide]: the IC50 was less than 0.05 µM. Next, `Nc1cc(-c2n[nH]c(-c3nc(-c4cccc(CN[C@H]5CCc6ccccc65)c4)cnc3N)n2)ccn1` [Example 946, 3-[3-(2-aminopyridin-4-yl)-1H-1,2,4-triazol-5-yl]-5-(3-{[(1S)-2,3-dihydro-1H-inden-1-ylamino]methyl}phenyl)pyrazin-2-amine]: less than 0.05 µM; `Nc1ncc(-c2cccc(CN[C@H]3CCc4ccccc43)c2)nc1C(=O)NC1CCCCNC1` (stereo partly drawn) [Example 947, 3-amino-N-azepan-3-yl-6-(3-{[(1S)-2,3-dihydro-1H-inden-1-ylamino]methyl}phenyl)pyrazine-2-carboxamide]: less than 0.05 µM; `Nc1ncc(-c2cccc(CNC(=O)c3csc(-c4cccs4)n3)c2)nc1C(=O)N[C@H]1CCCNC1` [Example 948, 3-amino-N-[(3S)-piperidin-3-yl]-6-{3-[({[2-(2-thienyl)-1,3-thiazol-4-yl]carbonyl}amino)methyl]phenyl}pyrazine-2-carboxamide]: less than 0.05 µM.

Turning to `Nc1ncc(-c2cccc(CNC(=O)c3cncc(-c4cccs4)c3)c2)nc1C(=O)N[C@H]1CCCNC1` [Example 949, 3-amino-N-[(3S)-piperidin-3-yl]-6-{3-[({[5-(2-thienyl)pyridin-3-yl]carbonyl}amino)methyl]phenyl}pyrazine-2-carboxamide], the IC50 is less than 0.05 µM. The value for `CC(C)(C)c1ccc(CNC(=O)c2cccc(-c3cnc(N)c(C(=O)N[C@H]4CCCNC4)n3)c2)cc1` [Example 950, 3-amino-6-{3-[({[4-(1,1-dimethylethyl)phenyl]methyl}amino)carbonyl]phenyl}-N-[(3S)-piperidin-3-yl]pyrazine-2-carboxamide] was less than 0.05 µM; that for `Cc1cc(Cl)cc(Cl)c1CNC(=O)c1cccc(-c2cnc(N)c(C(=O)N[C@H]3CCCNC3)n2)c1` [Example 951, 3-amino-6-[3-({[(2,4-dichloro-6-methylphenyl)methyl]amino}carbonyl)phenyl]-N-[(3S)-piperidin-3-yl]pyrazine-2-carboxamide] was less than 0.05 µM. In the case of `Nc1ncc(-c2cccc(C(=O)NCc3cc(Cl)cc(Cl)c3)c2)nc1C(=O)N[C@H]1CCCNC1` [Example 952, 3-amino-6-[3-({[(3,5-dichlorophenyl)methyl]amino}carbonyl)phenyl]-N-[(3S)-piperidin-3-yl]pyrazine-2-carboxamide], the IC50 is less than 0.05 µM.

For the molecule `Nc1ncc(-c2cccc(CNS(=O)(=O)c3cccs3)c2)nc1C(=O)N[C@H]1CCCNC1` [Example 953, 3-amino-N-[(3S)-piperidin-3-yl]-6-(3-{[(2-thienylsulfonyl)amino]methyl}phenyl)pyrazine-2-carboxamide], the IC50 was less than 0.05 µM. On to `Nc1ncc(-c2cccc(CNS(=O)(=O)c3ccsc3)c2)nc1C(=O)N[C@H]1CCCNC1` [Example 954, 3-amino-N-[(3S)-piperidin-3-yl]-6-(3-{[(3-thienylsulfonyl)amino]methyl}phenyl)pyrazine-2-carboxamide], for which the IC50 is less than 0.05 µM. As to `Nc1ncc(-c2cccc(CNS(=O)(=O)c3ccc(Cl)cc3)c2)nc1C(=O)N[C@H]1CCCNC1` [Example 955, 3-amino-6-[3-({[(4-chlorophenyl)sulfonyl]amino}methyl)phenyl]-N-[(3S)-piperidin-3-yl]pyrazine-2-carboxamide], the IC50 is less than 0.05 µM. As to `Nc1ncc(-c2cccc(CNC(=O)Nc3ccc4c(c3)OCO4)c2)nc1C(=O)N[C@H]1CCCNC1` [Example 956, 3-amino-6-[3-({[(1,3-benzodioxol-5-ylamino)carbonyl]amino}methyl)phenyl]-N-[(3S)-piperidin-3-yl]pyrazine-2-carboxamide], the IC50 is less than 0.05 µM. Take `COc1ccc(NC(=O)NCc2cccc(-c3cnc(N)c(C(=O)N[C@H]4CCCNC4)n3)c2)cc1` [Example 957, 3-amino-6-(3-{[({[4-(methyloxy)phenyl]amino}carbonyl)amino]methyl}phenyl)-N-[(3S)-piperidin-3-yl]pyrazine-2-carboxamide]: the IC50 is less than 0.05 µM.

As to `Nc1ncc(-c2cccc(CNC(=O)Nc3ccc(F)cc3)c2)nc1C(=O)N[C@H]1CCCNC1` [Example 958, 3-amino-6-{3-[({[(4-fluorophenyl)amino]carbonyl}amino)methyl]phenyl}-N-[(3S)-piperidin-3-yl]pyrazine-2-carboxamide], the IC50 is less than 0.05 µM.

For the molecule `CCN(CC)CCOc1cccc(-c2cnc(N)c(C(=O)N[C@H]3CCCNC3)n2)c1` [Example 959, 3-amino-6-(3-{[2-(diethylamino)ethyl]oxy}phenyl)-N-[(3S)-piperidin-3-yl]pyrazine-2-carboxamide], the IC50 was less than 0.05 µM. In the case of `Nc1ncc(-c2cccc(OCCN3CCOCC3)c2)nc1C(=O)N[C@H]1CCCNC1` [Example 960, 3-amino-6-{3-[(2-morpholin-4-ylethyl)oxy]phenyl}-N-[(3S)-piperidin-3-yl]pyrazine-2-carboxamide], the IC50 was 0.05 to 1 µM. On to `COc1cccc(-c2cnc(N)c(C(=O)N[C@H]3CCCNC3)n2)c1` [Example 961, 3-amino-6-[3-(methyloxy)phenyl]-N-[(3S)-piperidin-3-yl]pyrazine-2-carboxamide], for which the IC50 is less than 0.05 µM. For the molecule `CCOc1cccc(-c2cnc(N)c(C(=O)N[C@H]3CCCNC3)n2)c1` [Example 962, 3-amino-6-[3-(ethyloxy)phenyl]-N-[(3S)-piperidin-3-yl]pyrazine-2-carboxamide], the IC50 was less than 0.05 µM. Consider `Nc1ncc(-c2cccc(C(=O)NCc3ccc(-c4csnn4)cc3)c2)nc1C(=O)N[C@H]1CCCNC1` [Example 963, 3-amino-N-[(3S)-piperidin-3-yl]-6-{3-[({[4-(1,2,3-thiadiazol-4-yl)phenyl]methyl}amino)carbonyl]phenyl}pyrazine-2-carboxamide], for which the concentration for half-maximal inhibition (IC50) is less than 0.05 µM. Take `CCNCCOc1cccc(-c2cnc(N)c(C(=O)N[C@H]3CCCNC3)n2)c1` [Example 964, 3-amino-6-(3-{[2-(ethylamino)ethyl]oxy}phenyl)-N-[(3S)-piperidin-3-yl]pyrazine-2-carboxamide]: the IC50 was less than 0.05 µM.

The values are drawn from US7704995B2 (Exelixis, Inc., priority 2003, dated 2010).
